Assay results reported in patent publication US9555038B2, “Heterocycle-substituted tetracyclic compounds and methods of use thereof for the treatment of viral diseases” (Merck Sharp & Dohme Corp., priority 2013, dated 2017).
Like-named read-outs stand apart in the source and are kept apart here.

Columns and labels:
HCV replicon 1A = assay: Cell-based HCV Replicon Assay A, replicon 1A
Outline: (§1)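 2000 cells/well; 10 serial dilutions, top concentration 333.3 nM to 1.667 nM; 0.5% DMSO, 5% FBS; 3 days; lysis; multiplex TaqMan RT-PCR (NS5B/Neo plus cyclophilin), RNA from linear Ct standard curves.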

HCV replicon 2B = assay: Cell-based HCV Replicon Assay A, replicon 2B
Outline: as §1

HCV replicon 1AQ30D = assay: Cell-based HCV Replicon Assay B, replicon 1AQ30D
Outline: (§2)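 EC50 defined as the drug concentration giving a CT increase of 1 above projected baseline, from real-time RT-PCR of replicon RNA using genotype-specific primers and probes. Cells were seeded in 5% FBS, dosed after 24 h and incubated 3 days before lysis.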

HCV replicon 1B = assay: Cell-based HCV Replicon Assay B, replicon 1B
Outline: as §2

HCV replicon 1AY93H = assay: Cell-based HCV Replicon Assay A, replicon 1AY93H
Outline: as §1

[1] = read-out: 1A Q30D IC50, replicon 1AQ30D
[2] = read-out: 1A Y93H IC50, replicon 1AY93H
[3] = Hepatitis C virus, read-out: 1A Q30D IC50 (nM), replicon 1AQ30D

Row | SMILES | IC50 (HCV replicon 1A) | IC50 (HCV replicon 2B; read-out: 2B IC50, replicon 2B) | IC50 (HCV replicon 1AQ30D; [1]) | IC50 (HCV replicon 1B) | IC50 (HCV replicon 1AY93H; [2]) | IC50 (HCV replicon 1AQ30D; [3]) | IC50 (HCV replicon 1B; Hepatitis C virus) | IC50 (HCV replicon 1A; Hepatitis C virus) | IC50 (HCV replicon 2B; Hepatitis C virus, read-out: 2B IC50 (nM), replicon 2B) | IC50 (HCV replicon 1AY93H; Hepatitis C virus, read-out: 1A Y93H IC50 (nM), replicon 1AY93H)
1 | CCCc1ncc(C2Oc3cc(-c4cnc([C@@H]5CCCN5C(=O)[C@@H](NC(=O)OC)C(C)C)[nH]4)cc(F)c3-c3cc4cc(-c5cnc([C@@H]6CCCN6C(=O)C(NC(=O)OC)C6CCOC(C)(C)C6)[nH]5)ccc4n32)s1 (single isomer, unassigned) [Compound 61] | 3.3 pM | 0.006 nM | 0.07 nM | 1.7 pM | 0.012 nM | – | – | – | – | –
2 | COC(=O)NC(C(=O)N1[C@@H]2C[C@@H]2C[C@H]1c1ncc(-c2ccc3c(c2)cc2n3C(c3ncc(C4CC4)s3)Oc3cc(-c4cnc([C@@H]5CCCN5C(=O)[C@@H](NC(=O)OC)C(C)C)[nH]4)cc(F)c3-2)[nH]1)C1C[C@@H](C)O[C@@H](C)C1 (single isomer, unassigned) [Compound 65] | 2.1 pM | 0.044 nM | – | – | 0.0081 nM | 0.095 nM | 3 pM | – | – | –
3 | COC(=O)NC(C(=O)N1CCC[C@H]1c1ncc(-c2ccc3c(c2)cc2n3C(c3cnc(C4CCC4)s3)Oc3cc(-c4cnc([C@@H]5CCCN5C(=O)[C@@H](NC(=O)OC)C(C)C)[nH]4)cc(F)c3-2)[nH]1)C1C[C@@H](C)O[C@@H](C)C1 (single isomer, unassigned) [Compound 66] | – | 0.003 nM | 0.018 nM | – | 0.0021 nM | – | 2 pM | 2.3 pM | – | –
4 | COC(=O)NC(C(=O)N1CCC[C@H]1c1ncc(-c2ccc3c(c2)cc2n3C(c3cnc(C4CCC4)s3)Oc3cc(-c4cnc([C@@H]5CCCN5C(=O)[C@@H](NC(=O)OC)C(C)C)[nH]4)cc(F)c3-2)[nH]1)C1C[C@@H](C)O[C@@H](C)C1 (single isomer, unassigned) [Compound 67] | 2 pM | 0.056 nM | 1.39 nM | 2 pM | 0.225 nM | – | – | – | – | –
5 | COC(=O)NC(C(=O)N1CCC[C@H]1c1ncc(-c2ccc3c(c2)c(F)c2n3C(c3cnc(C4CC4)s3)Oc3cc(-c4cnc([C@@H]5CCCN5C(=O)[C@@H](NC(=O)OC)C(C)C)[nH]4)cc(F)c3-2)[nH]1)C1CCOC(C)(C)C1 (single isomer, unassigned) [Compound 72] | – | – | – | – | – | 0.099 nM | 2.4 pM | 2.9 pM | 0.005 nM | 0.006 nM
6 | COC(=O)NC(C(=O)N1CCC[C@H]1c1ncc(-c2ccc3c(c2)cc2n3C(c3cnc(C(C)(C)O)s3)Oc3cc(-c4cnc([C@@H]5CCCN5C(=O)[C@@H](NC(=O)OC)C(C)C)[nH]4)cc(F)c3-2)[nH]1)C1C[C@@H](C)O[C@@H](C)C1 (single isomer, unassigned) [Compound 74] | 3.6 pM | 0.005 nM | – | 4 pM | 0.0053 nM | 0.021 nM | – | – | – | –
7 | COC(=O)NC(C(=O)N1CCC[C@H]1c1ncc(-c2ccc3c(c2)cc2n3C(c3nc(C(F)(F)F)cs3)Oc3cc(-c4cnc([C@@H]5CCCN5C(=O)[C@@H](NC(=O)OC)C(C)C)[nH]4)cc(F)c3-2)[nH]1)C1C[C@@H](C)O[C@@H](C)C1 (single isomer, unassigned) [Compound 76] | 2.7 pM | 0.141 nM | – | – | 0.0322 nM | 0.422 nM | 3 pM | – | – | –
8 | COC(=O)N[C@H](C(=O)N1CCC[C@H]1c1ncc(-c2cc(F)c3c(c2)OC(c2cnc(-c4ccc(OC(F)(F)F)cc4)s2)n2c-3cc3cc(-c4cnc([C@@H]5CCCN5C(=O)[C@@H](NC(=O)OC)C(C)C)[nH]4)ccc32)[nH]1)C(C)C (single isomer, unassigned) [Compound 77] | 3.5 pM | 0.005 nM | 0.053 nM | – | 0.0056 nM | – | 1 pM | – | – | –
9 | COC(=O)N[C@H](C(=O)N1CCC[C@H]1c1ncc(-c2cc(F)c3c(c2)OC(c2cnc(-c4ccc(OC(F)(F)F)cc4)s2)n2c-3cc3cc(-c4cnc([C@@H]5CCCN5C(=O)[C@@H](NC(=O)OC)C(C)C)[nH]4)ccc32)[nH]1)C(C)C (single isomer, unassigned) [Compound 78] | 1.4 pM | 0.193 nM | 1.86 nM | 1 pM | 0.165 nM | – | – | – | – | –
